This passage reports GI50 and TGI results from PubChem BioAssay (NCI).

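Cultured in 96-well plates, cells were exposed to test compound for 48 hours across five concentrations. Abbreviation: GI50, concentration required for 50% inhibition of growth. TGI: concentration producing complete growth inhibition.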 Bounds are passed on as bounds.

Holding throughout (test): NCI-60 cell line screen, 48 h
The test system of experiment [1] is MOLT-4 leukemia.
In experiment [2] the test system is SK-MEL-5 melanoma.
Experiment [3] relates to T-47D breast.
The subject of experiment [4] is HCT-15 colon.
The subject of experiment [5] is RXF 393 renal.
For experiment [6], the system named is NCI-H460 lung.
Experiment [7] relates to SNB-19 CNS.
Experiment [8] has as its system NCI-H522 lung.
In experiment [9] the test system is ACHN renal.
The subject of experiment [10] is SK-MEL-28 melanoma.

On to `COP(=O)(OC)C(NC(c1ccccc1)c1ccccc1)c1ccc2c(c1)OCO2` (stereo not given), for which the GI50 is 7.85 µM in experiment [1]; 16.9 µM in [2]; 27 µM in experiment [3]; 30.1 µM in experiment [4]; 23 µM in experiment [5]; 20.1 µM in experiment [6]. The GI50 in experiment [7] was 23.4 µM; in experiment [8] it was 24.5 µM; in [9], 29.1 µM; in experiment [10] it was 21.5 µM. Also, the TGI in experiment [1] worked out at 29.4 µM; in [2] it was 30.5 µM; in experiment [3], 84.7 µM; in experiment [4] it was 95.1 µM; in experiment [5] it was 50.1 µM; in experiment [6], 42 µM. In addition, the TGI in [7] is 47.4 µM; in [8] it was 70 µM; in [9], greater than 100 µM; in experiment [10] it was 44.8 µM.

Consider `CCN(CC)c1ccc(/C=C\c2cc(C)c3cc(C)ccc3n2)cc1`, for which the GI50 is 6.12 µM in experiment [1]; 1.71 µM in [2]; 1.11 µM in experiment [3]; 2.32 µM in [4]; 3.99 µM in [5]; 3.51 µM in experiment [6]. Also, the GI50 in [7] is 51.7 µM; in experiment [8] it was 1.49 µM; in [9], 6.23 µM; in experiment [10] it was 5.17 µM. Moreover, the TGI is greater than 100 µM in experiment [1]; 4.57 µM in experiment [2]; greater than 100 µM in [3]; greater than 100 µM in experiment [4]; greater than 100 µM in experiment [5]; 24.5 µM in [6]. Moreover, the TGI in [7] is greater than 100 µM; in [8] it was 5.19 µM; in [9] it was greater than 100 µM; in [10] it was greater than 100 µM.

Regarding `CN(C)CCCn1c2c(c3cnccc3c1=O)C(=O)c1ccccc1-2`, the GI50 in [1] is 0.232 µM; in [2], 0.363 µM; in [3], 0.509 µM; in experiment [4], 0.318 µM; in [5], 0.396 µM; in experiment [6] it was 0.39 µM. For the same compound, the GI50 is 0.362 µM in experiment [7], 0.312 µM in experiment [8], 0.145 µM in [9] and 0.508 µM in [10]. Also, the TGI in [1] worked out at 2.1 µM; in [2] it was 1.48 µM; in experiment [3], 6.99 µM; in [4], 10.2 µM; in experiment [5], 2.05 µM; in experiment [6], 1.75 µM. Further, the TGI in experiment [7] turned out to be 3.96 µM; in [8] it was 7.24 µM; in experiment [9], 3.63 µM; in experiment [10], 2.59 µM.

For `CCCC1c2c(ccc3ccccc23)Oc2ccc3ccccc3c21`, the TGI in [1], in experiment [2], in experiment [3], in experiment [4], in [5] and in experiment [6] was greater than 100 µM in each case. Also, the TGI is greater than 100 µM in [7], 80.4 µM in experiment [8], greater than 100 µM in [9] and greater than 100 µM in experiment [10].

With `CCCC[C@H]1C(=O)O[C@H](C)[C@H](NC(=O)c2cccc(NC=O)c2O)C(=O)O[C@@H](C)[C@@H]1OC(=O)CC(C)C`, the TGI in experiment [1] turned out to be 53 µM; in [2], 16.8 µM; in experiment [3], 44.8 µM; in [4], 22 µM; in [5] it was 24.6 µM; in experiment [6], 27.4 µM. For the same compound, the TGI in [7] was determined as 63.1 µM; in [8] it was 31.6 µM; in [9] it was 36.1 µM; in experiment [10], 72.9 µM.

Turning to `Cc1ccc2c(c1)nc(C(=O)c1ccco1)c(C(F)(F)F)[n+]2[O-]`, the GI50 was greater than 100 µM in experiment [1]; 1.6 µM in [2]; 50.3 µM in experiment [3]; greater than 100 µM in experiment [4]; greater than 100 µM in experiment [5]; greater than 100 µM in experiment [6]. Further, the GI50 in [7] was greater than 100 µM; in experiment [8], 66.7 µM; in experiment [9] it was greater than 100 µM; in experiment [10], greater than 100 µM. For the same compound, the TGI in experiment [1] was greater than 100 µM; in [2], 2.94 µM; in experiment [3], greater than 100 µM; in experiment [4], greater than 100 µM; in [5] it was greater than 100 µM; in experiment [6] it was greater than 100 µM. The TGI in [7], in experiment [8], in experiment [9] and in [10] was greater than 100 µM each time.
